# What was measured:
# LTA4H epoxide hydrolase = LTA4H epoxide hydrolase (Homo sapiens (Human), UniProt P09960); conditions: read-out: LTA4H epoxide hydrolase potency; Bhatt et al. (2017); cited from earlier work
# LTB4 production in blood = assay: Human pharmacodynamic studies, inhibition of LTB4 production in blood; assay type: in vivo
# [1] = system: LTB4 production in human whole blood; assay: LTB4 production in ex vivo stimulated human whole blood; assay type: cell-based
# Source text: The IC50 of LTA4H epoxide hydrolase activity can be measured using methods known in the art, for example, using the LTA4 hydrolase homogenous time resolved fluorescence assay which is described, for example, in U.S. Pat. Nos. 7,737,145 and 10,202,362; the contents of which are expressly incorporated by reference herein. The hydrolase-homogeneous time resolved fluorescence assay is a two-step assay that measures the hydrolysis of LTA4 to LTB4 by analyzing the amount of LTB4 produced. The first step involves the enzymatic conversion of LTA4 to LTB4 and the second step involves the quantification of the LTB4 formed with a homogeneous time resolved fluorescence assay. LTA4H epoxide hydrolase activity can also be measured in a whole blood assay, for example, using human whole blood, using the method described in Penning, T. D. et al., J. Med. Chem. (2000), 43 (4): 721-735 and U.S. Pat. No. 7,737,145; the contents of each of which are expressly incorporated by reference herein. In the whole blood assay, the inhibitor compounds are tested for their ability to inhibit LTB4 release upon stimulation with calcium ionophore and the LTB4 levels in supernatants are measured by ELISA. LTA4H epoxide hydrolase activity can also be measured according to the method described in Low et al. (2017). […]
# [2] = Most common treatment emergent adverse events, safety population
# [3] = Nonclinical pharmacokinetics and mass balance studies; assay type: in vivo, animals
# LTA4H aminopeptidase = LTA4H aminopeptidase (Homo sapiens (Human), UniProt P09960); conditions: Bhatt et al. (2017); read-out: LTA4H aminopeptidase potency; cited from earlier work
# [4] = system: sputum white blood cells and neutrophils; assay: Sputum cell counts in CF patients; assay type: in vivo, human
# Sequence of LTA4H aminopeptidase (P09960 whole entry): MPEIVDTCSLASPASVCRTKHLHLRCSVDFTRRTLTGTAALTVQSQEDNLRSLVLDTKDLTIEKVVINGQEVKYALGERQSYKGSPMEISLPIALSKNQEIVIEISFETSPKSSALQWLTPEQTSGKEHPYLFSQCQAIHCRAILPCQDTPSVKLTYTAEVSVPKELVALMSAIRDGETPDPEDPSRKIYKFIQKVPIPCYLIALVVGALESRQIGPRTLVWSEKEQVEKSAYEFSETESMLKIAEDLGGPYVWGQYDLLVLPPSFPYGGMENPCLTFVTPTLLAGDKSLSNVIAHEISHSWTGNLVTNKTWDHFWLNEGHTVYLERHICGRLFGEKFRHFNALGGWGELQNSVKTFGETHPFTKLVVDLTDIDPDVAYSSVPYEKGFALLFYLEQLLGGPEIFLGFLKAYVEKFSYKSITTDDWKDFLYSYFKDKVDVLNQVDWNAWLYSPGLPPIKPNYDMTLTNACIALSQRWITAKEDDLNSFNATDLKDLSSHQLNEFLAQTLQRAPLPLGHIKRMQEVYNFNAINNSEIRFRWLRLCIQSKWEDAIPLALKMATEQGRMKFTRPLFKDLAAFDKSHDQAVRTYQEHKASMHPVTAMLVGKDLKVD
# Sequence of LTA4H epoxide hydrolase (P09960 whole entry): as above
smiles,measurement,setting,value
"O=C(O)c1ccc(CN2C[C@@H]3C[C@H]2CN3Cc2ccc(Oc3ccc(-c4ncco4)cc3)cc2)cc1 [Acebilustat, 4-{[(1S,4S)-5-({4-[4-oxazol-2-yl-phenoxy]phenyl}methyl)-2,5-diazabicyclo[2.2.1]heptan-2-yl]methyl}benzoic acid]",IC50,LTA4H epoxide hydrolase,12 nM
same,inhibition at 50 mg,"LTB4 production in blood; 50 mg dose, human pharmacodynamic studies",≥ 63%
same,inhibition at 100 mg,"LTB4 production in blood; 100 mg dose, human pharmacodynamic studies",≥ 74%
same,inhibition at 150 mg,"LTB4 production in blood; 150 mg dose, human pharmacodynamic studies",≥ 82%
same,inhibition at 200 mg,"LTB4 production in blood; 200 mg dose, human pharmacodynamic studies",≥ 85%
same,EC50,"LTB4 production in blood; Homo sapiens, in vivo, humans, estimated",0.093 µg/mL
same,EC50,"LTB4 production in blood; human clinical PD studies, blood",190 nM
same,EC50 for inhibition of LTB4 production,"LTB4 production in blood; in vivo, humans, estimated",0.093 µg/mL
same,engagement of the pharmacologic mechanism in blood over 24-hour dosing interval,"LTB4 production in blood; once-daily oral doses of 50 mg and above, phase 1 studies",significant engagement of the pharmacologic mechanism
same,IC50,[1]; ex vivo stimulated human whole blood,64 nM
same,IC50,"[1]; human whole blood tested ex vivo, approximate",~0.0308 µg/mL
same,"Abdominal pain TEAE, %",[2]; 50 mg (N = 67),(4.5%)
same,"Abdominal pain upper TEAE, %",[2]; 50 mg (N = 67),(10.4%)
same,"Arthralgia TEAE, %",[2]; 50 mg (N = 67),(4.5%)
same,"Back pain TEAE, %",[2]; 50 mg (N = 67),(6.0%)
same,"Chest discomfort TEAE, %",[2]; 50 mg (N = 67),(4.5%)
same,"Constipation TEAE, %",[2]; 50 mg (N = 67),(6.0%)
same,"Cough TEAE, %",[2]; 50 mg (N = 67),(40.3%)
same,"Diarrhoea TEAE, %",[2]; 50 mg (N = 67),(13.4%)
same,"Distal intestinal obstruction syndrome TEAE, %",[2]; 50 mg (N = 67),(6.0%)
same,"Dyspnoea TEAE, %",[2]; 50 mg (N = 67),(9.0%)
same,"Epistaxis TEAE, %",[2]; 50 mg (N = 67),(6.0%)
same,"Fatigue TEAE, %",[2]; 50 mg (N = 67),(13.4%)
same,"Forced expiratory volume decreased TEAE, %",[2]; 50 mg (N = 67),(6.0%)
same,"Gastroenteritis TEAE, %",[2]; 50 mg (N = 67),(1.5%)
same,"Gastrointestinal disorders TEAE, %",[2]; 50 mg (N = 67),(40.3%)
same,"General disorders and administration site conditions TEAE, %",[2]; 50 mg (N = 67),(35.8%)
same,"Haemoptysis TEAE, %",[2]; 50 mg (N = 67),(25.4%)
same,"Headache TEAE, %",[2]; 50 mg (N = 67),(23.9%)
same,"Infections and infestations TEAE, %",[2]; 50 mg (N = 67),(88.1%)
same,"Influenza TEAE, %",[2]; 50 mg (N = 67),(4.5%)
same,"Investigations TEAE, %",[2]; 50 mg (N = 67),(29.9%)
same,"Musculoskeletal and connective tissue disorders TEAE, %",[2]; 50 mg (N = 67),(19.4%)
same,"Nasopharyngitis TEAE, %",[2]; 50 mg (N = 67),(16.4%)
same,"Nausea TEAE, %",[2]; 50 mg (N = 67),(7.5%)
same,"Nervous system disorders TEAE, %",[2]; 50 mg (N = 67),(32.8%)
same,"No. of subjects with at least one TEAE, %",[2]; 50 mg (N = 67),(100.0%)
same,"Oropharyngeal pain TEAE, %",[2]; 50 mg (N = 67),(10.4%)
same,"Paranasal sinus hypersecretion TEAE, %",[2]; 50 mg (N = 67),(7.5%)
same,"Pyrexia TEAE, %",[2]; 50 mg (N = 67),(9.0%)
same,"Rales TEAE, %",[2]; 50 mg (N = 67),(1.5%)
same,"Rash TEAE, %",[2]; 50 mg (N = 67),(4.5%)
same,"Respiratory, thoracic and mediastinal disorders TEAE, %",[2]; 50 mg (N = 67),(70.1%)
same,"Rhinitis TEAE, %",[2]; 50 mg (N = 67),(6.0%)
same,"Rhinorrhoea TEAE, %",[2]; 50 mg (N = 67),(9.0%)
same,"Sinusitis TEAE, %",[2]; 50 mg (N = 67),(4.5%)
same,"Skin and subcutaneous tissue disorders TEAE, %",[2]; 50 mg (N = 67),(11.9%)
same,"Sputum abnormal TEAE, %",[2]; 50 mg (N = 67),(6.0%)
same,"Sputum increased TEAE, %",[2]; 50 mg (N = 67),(19.4%)
same,"Abdominal pain TEAE, %",[2]; 100 mg (N = 66),(6.1%)
same,"Abdominal pain upper TEAE, %",[2]; 100 mg (N = 66),(4.5%)
same,"Alanine aminotransferase increased TEAE, %",[2]; 100 mg (N = 66),(6.1%)
same,"Arthralgia TEAE, %",[2]; 100 mg (N = 66),(7.6%)
same,"Back pain TEAE, %",[2]; 100 mg (N = 66),(1.5%)
same,"Chest discomfort TEAE, %",[2]; 100 mg (N = 66),(12.1%)
same,"Constipation TEAE, %",[2]; 100 mg (N = 66),(1.5%)
same,"Cough TEAE, %",[2]; 100 mg (N = 66),(43.9%)
same,"Diarrhoea TEAE, %",[2]; 100 mg (N = 66),(7.6%)
same,"Distal intestinal obstruction syndrome TEAE, %",[2]; 100 mg (N = 66),(3.0%)
same,"Dyspnoea TEAE, %",[2]; 100 mg (N = 66),(7.6%)
same,"Epistaxis TEAE, %",[2]; 100 mg (N = 66),(4.5%)
same,"Fatigue TEAE, %",[2]; 100 mg (N = 66),(13.6%)
same,"Forced expiratory volume decreased TEAE, %",[2]; 100 mg (N = 66),(7.6%)
same,"Gastroenteritis TEAE, %",[2]; 100 mg (N = 66),(6.1%)
same,"Gastrointestinal disorders TEAE, %",[2]; 100 mg (N = 66),(30.3%)
same,"General disorders and administration site conditions TEAE, %",[2]; 100 mg (N = 66),(36.4%)
same,"Haemoptysis TEAE, %",[2]; 100 mg (N = 66),(18.2%)
same,"Headache TEAE, %",[2]; 100 mg (N = 66),(13.6%)
same,"Infections and infestations TEAE, %",[2]; 100 mg (N = 66),(90.9%)
same,"Influenza TEAE, %",[2]; 100 mg (N = 66),(7.6%)
same,"Investigations TEAE, %",[2]; 100 mg (N = 66),(34.8%)
same,"Musculoskeletal and connective tissue disorders TEAE, %",[2]; 100 mg (N = 66),(16.7%)
same,"Nasopharyngitis TEAE, %",[2]; 100 mg (N = 66),(21.2%)
same,"Nausea TEAE, %",[2]; 100 mg (N = 66),(12.1%)
same,"Nervous system disorders TEAE, %",[2]; 100 mg (N = 66),(22.7%)
same,"No. of subjects with at least one TEAE, %",[2]; 100 mg (N = 66),(100.0%)
same,"Oropharyngeal pain TEAE, %",[2]; 100 mg (N = 66),(13.6%)
same,"Pyrexia TEAE, %",[2]; 100 mg (N = 66),(12.1%)
same,"Rales TEAE, %",[2]; 100 mg (N = 66),(6.1%)
same,"Rash TEAE, %",[2]; 100 mg (N = 66),(9.1%)
same,"Respiratory, thoracic and mediastinal disorders TEAE, %",[2]; 100 mg (N = 66),(75.8%)
same,"Rhinitis TEAE, %",[2]; 100 mg (N = 66),(4.5%)
same,"Rhinorrhoea TEAE, %",[2]; 100 mg (N = 66),(7.6%)
same,"Sinusitis TEAE, %",[2]; 100 mg (N = 66),(10.6%)
same,"Skin and subcutaneous tissue disorders TEAE, %",[2]; 100 mg (N = 66),(24.2%)
same,"Sputum increased TEAE, %",[2]; 100 mg (N = 66),(10.6%)
same,accumulation and retention in pigmented tissues (uveal tract),[3]; mass balance studies in animals,some potential for accumulation and retention
same,route of elimination,[3]; nonclinical,primarily via liver-bile-feces
same,total drug excreted via kidneys,[3]; nonclinical,less than 3%
same,IC50,LTA4H aminopeptidase,27 nM
same,sputum neutrophils decrease,[4]; 100 mg group,65%
same,sputum white blood cells decrease from Baseline,[4]; 100 mg group,60%
same,sputum neutrophils decrease,[4]; all treated (50 to 100 mg),34%
same,sputum white blood cells decrease from Baseline,[4]; all treated subjects (50 or 100 mg),31%

# Source: patent publication US20240398793A1, “Methods of Treating Lymphedema” (Celltaxis, LLC, priority 2021, published 2024)
